In patent publication US20190119348A1, “PARATHYROID HORMONE RECEPTOR 1 ANTAGONIST AND INVERSE AGONIST POLYPEPTIDES AND METHODS OF THEIR USE” (The General Hospital Corporation, priority 2016, published 2019):
Read-outs that look alike come from different tables or passages of the source. Blank lines part the entries; values can stand above or below the compound they belong to. Where a SMILES comes first, the peptide text is derived from it. [ ]: non-standard residue; d: D form. The star is where a group is joined. 5TAMRA = CN(C)c1ccc2c(c1)Oc1cc(N(C)C)ccc1C21OC(=O)c2cc(C(=O)*)ccc21

Assays:
[1] = molecular target: T1, PTHR1 (hPTHR1) (Homo sapiens, UniProt Q03431); assay: Radioligand competition binding in GP-2.3 cells; details: radioligand competition
T1 construct: expressed in transfected cells; host or cells: GP-2.3 (HEK-293 stably transfected with hPTHR1 and GloSensor)
T1 sequence (Q03431 27-593): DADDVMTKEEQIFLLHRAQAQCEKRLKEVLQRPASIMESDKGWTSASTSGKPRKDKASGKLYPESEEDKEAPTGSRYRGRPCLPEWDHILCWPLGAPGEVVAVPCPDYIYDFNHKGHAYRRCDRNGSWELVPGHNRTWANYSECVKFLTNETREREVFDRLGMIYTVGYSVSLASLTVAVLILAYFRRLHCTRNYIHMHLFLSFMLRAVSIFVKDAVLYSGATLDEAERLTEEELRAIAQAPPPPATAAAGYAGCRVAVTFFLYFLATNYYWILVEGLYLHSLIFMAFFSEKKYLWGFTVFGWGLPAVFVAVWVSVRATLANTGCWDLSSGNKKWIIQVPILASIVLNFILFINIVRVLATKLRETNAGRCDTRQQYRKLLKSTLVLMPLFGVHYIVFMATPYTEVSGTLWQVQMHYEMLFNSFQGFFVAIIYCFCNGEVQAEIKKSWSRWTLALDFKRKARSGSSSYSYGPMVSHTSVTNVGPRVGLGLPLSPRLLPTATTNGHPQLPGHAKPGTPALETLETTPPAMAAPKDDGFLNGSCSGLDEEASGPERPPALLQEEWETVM
Protocol: (§1) Intact cell binding reactions were performed in 96-well plates, and, following incubation, the cells were lysed with 1N NaOH, and the lysate was counted for gamma radiation. For membrane dissociation assays, reactions were assembled in 15 cc tubes, and, at times following membrane addition (t=0), aliquots were withdrawn and filtered through a well of a vacuum filtration 96-well plate, rinsed, and, after washing, the filters were removed and counted for gamma irradiation. […] Curves were fit to the data using a four-parameter sigmoidal dose-response equation.
(§2) Pharmacological properties of the ligands were assessed in cells expressing the PTHR1 and the GloSensor™ cAMP reporter. The assays used GP-2.3 cells, derived from HEK293 cells by stable transfection with the hPTHR1 and GloSensor™, as well as SGS-72 cells, which are derived from the human osteosarcoma cell line, Saos-2, in which is endogenously expressed the hPTHR1, by stable transfection with GloSensor™. Binding of representative polypeptides to the PTHR1 was assessed in GP-2.3 cells by radioligand competition methods (FIGS. 1A and 1B, Table 3).
The assays were performed in GP-2.3 cells with the two tracer ^125I-radioligands shown; values are half-maximal inhibitory concentration (pIC50) and corresponding nanomolar value (below) derived from curve fitting ligand dose-response data. Data are means of four experiments.

[2] = molecular target: T2, PTHR1 (Homo sapiens, UniProt Q03431); assay: Antagonism of PTH(1-34)-induced cAMP response (GloSensor) in GP-2.3 cells; format: cell-based; details: PTH(1-34) 1 nM
T2 construct: expressed in transfected cells; host or cells: GP-2.3 (HEK-293 stably transfected with hPTHR1 and GloSensor)
T2 sequence (Q03431 27-593): T1 sequence (Q03431 27-593)
Protocol: (§3) cAMP signaling was assessed in the HEK293-derived or SaOS2-derived cell lines stably expressing the luciferase-based GloSensor™ cAMP reporter (Hattersley et al., Paper presented at: Novel Signaling Mechanisms and Bone Cell Biology 2014; Binkowski et al., Methods in molecular biology. 756:263-271). HEK-293 cells were further transfected to stably express the hPTHR1, hPTHR1-H223R, or hPTHR1-T410P. The cells were seeded into 96-well white plates and were assayed 24 to 48 hours post-confluency. Assays were performed at room temperature in CO2-independent culture media (Life Technologies, Corp., Carlsbad, Calif.) containing 0.1% BSA (CIDB). The cells were pre-loaded with luciferin (0.5 mM in CIDB) for 15 minutes, then PTH peptides were added at varying concentrations. cAMP-dependent luminescence was measured at two-minute intervals using a PerkinElmer Envision plate reader. The time at which maximum luminescence (cps) observed with agonist alone, typically at 10-20 minutes after agonist addition, was used to obtain data from wells containing antagonist with or without agonist, to thus generate antagonist ligand dose-response curves. The resulting cps values were then plotted against ligand concentration using GraphPad Prism 7.0 software and a four-parameter logistics curve fitting equation, which yielded parameters of inhibitory potency (pIC50).
as §2
z,999 concentration of antagonist that inhibited the maximum response to PTH(1-34)-induced in the absence of antagonist (at ˜40 minutes) is reported in units of -log M (pIC50), and the corresponding nanomolar value is shown below each pIC50 value. Data are means of the number of experiments indicated (n). The PTH(1-34)-induced maximum luminescence was ˜80,000 cps and the basal was ˜1,000 cps. TMR indicates Lys13 modified at epsilon amino function with TMR, P vs. inhibition by dW12,Y34-bPTH(7-34).

[3] = molecular target: T3, endogenous hPTHR1 (Homo sapiens, UniProt Q03431); assay: Antagonism of PTH(1-34)- and PTHrP(1-36)-induced cAMP response (GloSensor) in SGS-72 cells; format: cell-based
T3 construct: Saos-2, in which is endogenously expressed the hPTHR1; endogenous in cells
T3 sequence (Q03431 27-593): T1 sequence (Q03431 27-593)
Protocol: cAMP signaling was assessed in the HEK293-derived or SaOS2-derived cell lines stably expressing the luciferase-based GloSensorTM cAMP reporter ([…] al., Paper presented at: Novel Signaling Mechanisms and Bone Cell Biology 2014; Binkowski et al., Methods in molecular biology. 756:263-271). HEK-293 cells were further transfected to stably express the hPTHR1, hPTHR1-H223R, or hPTHR1-T410P. The cells were seeded into 96-well white plates and were assayed 24 to 48 hours post-confluency. Assays were performed at room temperature in CO2-independent culture media (Life Technologies, Corp., Carlsbad, Calif.) containing 0.1% BSA (CIDB). The cells were pre-loaded with luciferin (0.5 mM in CIDB) for 15 minutes, then PTH peptides were added at varying concentrations. cAMP-dependent luminescence was measured at two-minute intervals using a PerkinElmer Envision plate reader. The time at which maximum luminescence (cps) observed with agonist alone, typically at 10-20 minutes after agonist addition, was used to obtain data from wells containing antagonist with or without agonist, to thus generate antagonist ligand dose-response curves. The resulting cps values were then plotted against ligand concentration using GraphPad Prism 7.0 software and a four-parameter logistics curve fitting equation, which yielded parameters of inhibitory potency (pIC50). Pharmacological properties of the ligands were assessed in cells expressing the PTHR1 and the GloSensorTM cAMP reporter. The assays used GP-2.3 cells, derived from HEK293 cells by stable transfection with the hPTHR1 and GloSensorTM, as well as SGS-72 cells, which are derived from the human osteosarcoma cell line, Saos-2, in which is endogenously expressed the hPTHR1, by stable transfection with GloSensorTM. Binding of representative polypeptides to the PTHR1 was assessed in GP-2.3 cells by radioligand competition methods (FIGS. 1A and 1B, Table 3). […] In Table 5, antagonist assays were performed in SGS-72 cells (SaOS2 cells with stable GloSensorTM cAMP reporter) at room temperature. […] The mean (±sem) concentration of antagonist that inhibited the maximum agonist-induced response observed in the absence of antagonist (at 40 minutes) is reported in units of -log M (pIC50), and the corresponding nanomolar value is shown below each pIC50 value. Data are means of the number of seven experiments. The PTH(1-34)-induced maximum luminescence was 500,000 cps and the basal was 5,000 cps. TMR indicates Lys13 modified at epsilon amino function with TMR. The data are illustrated in FIG. 7A. […] Date are means (±SEM) of the number of separate experiments indicated by n.

[4] = molecular target: T2, PTHR1; assay: Residual agonist activity, cAMP luminescence in GP-2.3 cells; format: cell-based; details: ligands applied directly to GP-2.3 cells
Protocol: as §3

[5] = molecular target: T2, PTHR1; assay: Confocal microscopy of TMR-ligand internalization in GP-2.3 cells; format: cell-based; details: 15 minutes after ligand addition (100 nM)
Protocol: Confocal fluorescence microscopy images were acquired using Olympus FV-1000 MPE confocal system (Center Valley, Pa. 18034), performed by the Photopathology Core facility of the Wellman Center for Photomedicine at the Massachusetts General Hospital. Images were captured with a 40× (LUMPLFL 0.8NA WD 3.3 mm) water-immersion objective, and with 405 nm and 559 nm excitation lasers, at a resolution of 1024×1024.
The cells were cultured on glass cover-slips in 24-well plates to ˜75% of confluency, then treated with PTH^TMR ligand (100 nM) in Hank's balanced salts buffer with 0.1% BSA (HBB) for 15 minutes at room temperature, then rinsed thrice with HBB, fixed with 4% formalin for 5 minutes, mounted with vector-shield containing DAPI on a glass microscope slide, viewed on the microscope, and digitally imaged.

[6] = molecular target: T2, PTHR1; assay: PTHR1 binding kinetics (dissociation) in GP-2.3 cell membranes
Protocol: as §1, with “Ligand binding to the PTH1 R was assessed in intact GP-2.3 cells or membranes prepared from GP-2.3 cells using a ^125I-PTH peptide analog as tracer radioligand and were incubated at room temperature for 90 minutes. Intact” for “Intact”

- apparent PTHR1 affinity compared with dTrp^12-PTH(7-34)-1894 [1]: at least as strong
- fold more effective inhibition than dTrp^12-PTH(7-34)-1894 [2]: five
- IC50 ([2]; pIC50, inhibition of cAMP signal induced by PTH(1-34)): 100 nM
- fold more effective inhibition than dTrp^12-PTH(7-34)-1894 ([3]; PTH(1-34) 0.3 nM): ~30 fold
- IC50 ([3]; antagonist pre-treatment 10 minutes, PTHrP(1-36) 0.3 nM, seven experiments, read-out: corresponding nanomolar value vs. PTHrP(1-36) (Table 5)): 1 nM
- IC50 ([3]; antagonist pre-treatment 10 minutes, PTHrP(1-36) 0.3 nM, seven experiments, read-out: pIC50 vs. PTHrP(1-36) (Table 5) (converted)): 0.871 nM
- IC50 ([3]; corresponding nanomolar value vs. PTH(1-34) (Table 5), antagonist pre-treatment 10 minutes, PTH(1-34) 0.3 nM, seven experiments): 1 nM
- IC50 ([3]; pIC50, inhibition of cAMP signal induced by PTH(1-34), PTH(1-34) 0.3 nM): 2.51 nM
- IC50 ([3]; pIC50 vs. PTH(1-34) (Table 5), antagonist pre-treatment 10 minutes, PTH(1-34) 0.3 nM, seven experiments): 0.832 nM
- residual agonist activity compared with dTrp^12-PTH(7-34)-1894 [4]: less residual agonist activity
Compound: CC[C@H](C)[C@H](N)C(=O)N[C@@H](CCC(N)=O)C(=O)N[C@@H](CC(C)C)C(=O)N[C@@H](CCSC)C(=O)N[C@@H](Cc1c[nH]cn1)C(=O)N[C@@H](CCC(N)=O)C(=O)N[C@@H](CCCNC(=N)N)C(=O)N[C@@H](C)C(=O)N[C@@H](CCCCN)C(=O)N[C@@H](Cc1c[nH]c2ccccc12)C(=O)N[C@H](C(=O)N[C@@H](CCC(N)=O)C(=O)N[C@@H](CC(=O)O)C(=O)N[C@@H](C)C(=O)N[C@@H](CCCNC(=N)N)C(=O)N[C@@H](CCCNC(=N)N)C(=O)N[C@@H](CCCNC(=N)N)C(=O)N[C@@H](C)C(=O)N[C@@H](Cc1ccccc1)C(=O)N[C@@H](CC(C)C)C(=O)N[C@@H](Cc1c[nH]cn1)C(=O)N[C@@H](CCCCN)C(=O)N[C@@H](CC(C)C)C(=O)N[C@H](C(=O)N[C@@H](C)C(=O)N[C@@H](CCC(=O)O)C(=O)N[C@H](C(=O)N[C@@H](Cc1c[nH]cn1)C(=O)N[C@H](C(=O)N[C@@H](C)C(=O)N[C@@H](CCC(=O)O)C(=O)N[C@H](C(N)=O)[C@@H](C)CC)[C@@H](C)O)[C@@H](C)CC)[C@@H](C)CC)[C@@H](C)CC [compound 1950, LA-PTH(5-36)] (H-IQLMHQRAKWIQDARRRAFLHKLIAEIHTAEI-NH2; N-terminus assumed)

- ligand internalization (TMR fluorescence) [5]: did not internalize
Compound: CC[C@H](C)[C@H](N)C(=O)N[C@@H](CCC(N)=O)C(=O)N[C@@H](CC(C)C)C(=O)N[C@@H](CCSC)C(=O)N[C@@H](Cc1c[nH]cn1)C(=O)N[C@@H](CCC(N)=O)C(=O)N[C@@H](CCCNC(=N)N)C(=O)N[C@H](Cc1c[nH]c2ccccc12)C(=O)N[C@@H](CCCCNC(=O)c1ccc2c(c1)C(=O)OC21c2ccc(N(C)C)cc2Oc2cc(N(C)C)ccc21)C(=O)N[C@@H](Cc1c[nH]c2ccccc12)C(=O)N[C@H](C(=O)N[C@@H](CCC(N)=O)C(=O)N[C@@H](CC(=O)O)C(=O)N[C@@H](C)C(=O)N[C@@H](CCCNC(=N)N)C(=O)N[C@@H](CCCNC(=N)N)C(=O)N[C@@H](CCCNC(=N)N)C(=O)N[C@@H](C)C(=O)N[C@@H](Cc1c[nH]c2ccccc12)C(=O)N[C@@H](CC(C)C)C(=O)N[C@@H](Cc1c[nH]cn1)C(=O)N[C@@H](CCCCN)C(=O)N[C@@H](CC(C)C)C(=O)N[C@H](C(=O)N[C@@H](C)C(=O)N[C@@H](CCC(=O)O)C(=O)N[C@H](C(=O)N[C@@H](Cc1c[nH]cn1)C(=O)N[C@H](C(=O)N[C@@H](C)C(=O)N[C@@H](CCC(=O)O)C(=O)N[C@H](C(N)=O)[C@@H](C)CC)[C@@H](C)O)[C@@H](C)CC)[C@@H](C)CC)[C@@H](C)CC [compound 1953, TMR-dW12, W23-LA-PTH(5-36)] (H-IQLMHQR[dW]K(5TAMRA)WIQDARRRAWLHKLIAEIHTAEI-NH2; N-terminus assumed)

- dissociation from the PTHR1 compared with ^125I-Tyr^36-PTHrP(5-36)-836 and ^125I-M-PTH(1-15)-779 [6]: dissociated more slowly
Compound: ^125I-Nle^8, dTrp^12, Trp^23, Tyr^36-LA-PTH(5-36)-1954
